Experimental findings from ChEMBL document CHEMBL1201862, “PubChem BioAssay data set” (2004) are described below.

Some test systems named below: Malme-3M; A498; SF-539; M14; A549; TK-10; DU-145; K562; KM12; SF-268; PC-3; UO-31; MCF7; SK-OV-3; U-251; SNB-75; UACC-257; SK-MEL-2; NCI-H460; MDA-N.
Test in all cases: DTP human tumour cell line panel, 48 h

Molecules are shown by their SMILES. Where a name gives a salt, the structure may show the parent alone.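 Protocol summary: plate cells (96-well), add compound at 5 concentrations, incubate 48 h, interpolate endpoints linearly. At the GI50, growth is halved.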 Active and inactive are the calls of the source. No stated cut-off is given here; in the data, active = GI50 up to about 1.1 µM and inactive = higher.

By GI50 is commonly meant the concentration giving 50% growth inhibition. On to `CN(C)CCNCCCNc1c2ccccc2nc2cccc([N+](=O)[O-])c12`, for which the concentration for 50% growth inhibition (GI50) in the experiment with Malme-3M was 0.0461 µM (active); in the experiment on A498 it was 0.021 µM (active); with SF-539 it was 0.0676 µM (active); with M14 it was 0.0224 µM (active); in the experiment on A549 it was < 0.017 µM (active); in the experiment on TK-10 it was 0.046 µM (active). The GI50 in the experiment on DU-145 is < 0.0159 µM (active); in the experiment on K562 it was < 0.0119 µM (active); in the experiment with KM12, 0.027 µM (active); in the experiment with SF-268, < 0.016 µM (active); with PC-3, < 0.0171 µM (active); in the experiment on UO-31, 0.0741 µM (active). For the same compound, the GI50 with MCF7 is 0.0102 µM (active); in the experiment with SK-OV-3, 0.0424 µM (active); in the experiment with U-251, < 0.0175 µM (active); in the experiment on SNB-75, 0.0173 µM (active); with UACC-257 it was 0.22 µM (active); with SK-MEL-2, 0.0197 µM (active). In addition, the GI50 in the experiment with NCI-H460 was < 0.0121 µM (active).
As for `NCCS` [CYSTEAMINE HYDROCHLORIDE], the GI50 in the experiment on Malme-3M was > 100 µM (inactive); in the experiment with SF-539, 45.8 µM (inactive); with M14 it was > 100 µM (inactive); in the experiment on A549 it was > 100 µM (inactive); in the experiment with TK-10, > 100 µM (inactive); with MDA-N it was > 100 µM (inactive). For the same compound, the GI50 with DU-145, in the experiment with K562, with KM12, in the experiment with SF-268, in the experiment with PC-3 and with UO-31 was > 100 µM (inactive) in each case. The GI50 in the experiment with MCF7, in the experiment on U-251, in the experiment with SNB-75, with UACC-257, with SK-MEL-2 and with NCI-H460 was > 100 µM (inactive) in each case.
`O=C(NCCn1ccnn1)Nc1ccccc1`: the GI50 in the experiment on Malme-3M, in the experiment on M14, in the experiment on A549, with TK-10, in the experiment on DU-145 and with K562 was > 100 µM (inactive) in each case. In addition, the GI50 in the experiment on KM12, in the experiment with SF-268, with PC-3, in the experiment with MCF7, in the experiment with U-251 and in the experiment on SNB-75 was > 100 µM (inactive) each time. In addition, the GI50 with UACC-257, in the experiment on SK-MEL-2 and with NCI-H460 was > 100 µM (inactive) in each case.
For `CC(=O)NNc1nc(C)c(C(=O)/C=C/C=C/c2ccccc2)s1`, the GI50 was > 100 µM (inactive) in the experiment on Malme-3M; > 100 µM (inactive) with A498; > 100 µM (inactive) with SF-539; 48.9 µM (inactive) in the experiment on M14; > 100 µM (inactive) in the experiment with TK-10; > 100 µM (inactive) in the experiment on MDA-N. The GI50 with DU-145 was 54.5 µM (inactive); in the experiment on KM12, 29.6 µM (inactive); with SF-268, > 100 µM (inactive); in the experiment on UO-31, > 100 µM (inactive); in the experiment with MCF7, > 100 µM (inactive); with SK-OV-3 it was > 100 µM (inactive). For the same compound, the GI50 is 71.9 µM (inactive) in the experiment with U-251, > 100 µM (inactive) in the experiment on SNB-75, 66.7 µM (inactive) in the experiment on UACC-257 and > 100 µM (inactive) in the experiment with NCI-H460.
For `Nc1nc(Cl)c(N)c(NCC2(CO)CC(Cc3ccccc3)C2)n1` (stereo not given), the GI50 in the experiment on SF-539 was > 100 µM (inactive); with M14, 55.2 µM (inactive); in the experiment with A549, > 75 µM (inactive); in the experiment with TK-10, > 100 µM (inactive); with MDA-N, 33.3 µM (inactive); with DU-145 it was > 100 µM (inactive). Besides, the GI50 in the experiment on K562 is 0.218 µM (active); with KM12, 35.7 µM (inactive); with SF-268, > 92.9 µM (inactive); with PC-3 it was 51.3 µM (inactive); with UO-31, > 100 µM (inactive); with MCF7 it was 7.87 µM (inactive). Besides, the GI50 with SK-OV-3 is > 100 µM (inactive); with U-251, 14.6 µM (inactive); in the experiment on SNB-75, > 85.3 µM (inactive); in the experiment on UACC-257 it was 0.127 µM (active); in the experiment on SK-MEL-2, 52.6 µM (inactive); in the experiment with NCI-H460, > 55.5 µM (inactive).
Regarding `CC(=O)O[C@H]1[C@@H](N2CCCCC2)C[C@H]2[C@@H]3CC=C4C[C@@H](N5CCCC5)CC[C@]4(C)[C@H]3CC[C@@]21C`, the GI50 is 22.8 µM (inactive) with Malme-3M; > 100 µM (inactive) in the experiment on A498; 17.8 µM (inactive) in the experiment with SF-539; 19.2 µM (inactive) in the experiment with M14; > 100 µM (inactive) with A549; > 100 µM (inactive) with TK-10. In addition, the GI50 is 4.07 µM (inactive) in the experiment with K562; > 100 µM (inactive) in the experiment on KM12; > 100 µM (inactive) in the experiment on SF-268; 43.4 µM (inactive) in the experiment with PC-3; > 100 µM (inactive) in the experiment on UO-31; > 100 µM (inactive) in the experiment on MCF7. Also, the GI50 with SK-OV-3 was > 100 µM (inactive); in the experiment on U-251 it was 69 µM (inactive); in the experiment on SNB-75 it was > 100 µM (inactive); in the experiment with UACC-257 it was 30.8 µM (inactive); with SK-MEL-2, > 100 µM (inactive); in the experiment with NCI-H460, 91.6 µM (inactive).
Regarding `CC1(C)CC2=C(SC3C=CC=CC3N2)C(=O)C1C(=O)C(N)=O` (stereo not given), the GI50 in the experiment with SF-539, in the experiment with M14, in the experiment with A549, with TK-10, in the experiment on MDA-N and with DU-145 was > 100 µM (inactive) throughout. Also, the GI50 with KM12 is > 100 µM (inactive); in the experiment with SF-268, > 100 µM (inactive); in the experiment with PC-3 it was 65.9 µM (inactive); with UO-31, 54.5 µM (inactive); with MCF7, > 100 µM (inactive); with SK-OV-3, > 100 µM (inactive). In addition, the GI50 in the experiment with U-251, in the experiment with SNB-75, with UACC-257, with SK-MEL-2 and in the experiment on NCI-H460 was > 100 µM (inactive) in each case.
Take `Cc1ccc(C(=O)/C=C/N2CCN(c3cccc(C(F)(F)F)c3)CC2)cc1`: the GI50 with Malme-3M is 18.6 µM (inactive); with A498 it was 15.8 µM (inactive); in the experiment on SF-539 it was 15.9 µM (inactive); with M14 it was 16.9 µM (inactive); with A549, 22.9 µM (inactive); in the experiment on TK-10, 25.3 µM (inactive). Moreover, the GI50 with DU-145 was 16 µM (inactive); in the experiment with K562, 18.7 µM (inactive); in the experiment on KM12 it was 18.7 µM (inactive); in the experiment with SF-268 it was 17.3 µM (inactive); with PC-3, 25.1 µM (inactive); in the experiment on UO-31, 17.5 µM (inactive). In addition, the GI50 in the experiment with MCF7 is 18 µM (inactive); in the experiment with SK-OV-3 it was 35.1 µM (inactive); in the experiment with U-251, 16.8 µM (inactive); with SNB-75, 16.9 µM (inactive); in the experiment on UACC-257, 16.4 µM (inactive); with SK-MEL-2, 18.6 µM (inactive). The GI50 with NCI-H460 was 21.7 µM (inactive).
Turning to `COc1cnc2cc(C(=O)O)c3c([N+](=O)[O-])cccc3c2c1`, the GI50 in the experiment with Malme-3M, in the experiment on M14, in the experiment on A549, with TK-10, in the experiment with MDA-N and in the experiment with DU-145 was > 100 µM (inactive) in each case. Also, the GI50 in the experiment on K562, in the experiment on KM12, with SF-268, with PC-3, with UO-31 and in the experiment with MCF7 was > 100 µM (inactive) each time. In addition, the GI50 with SK-OV-3, with U-251, in the experiment with SNB-75, in the experiment with UACC-257, in the experiment with SK-MEL-2 and with NCI-H460 was > 100 µM (inactive) throughout.
Take `O=C1[C@H]2ON(c3ccccc3)C(c3ccc(Cl)cc3)[C@H]2C(=O)N1c1ccc(Cc2ccc(N3C(=O)[C@@H]4ON(c5ccccc5)C(c5ccc(Cl)cc5)[C@@H]4C3=O)cc2)cc1` (stereo not given in full): the GI50 with Malme-3M is 40.7 µM (inactive); in the experiment on A498, > 100 µM (inactive); in the experiment with SF-539, > 100 µM (inactive); in the experiment with M14 it was 18.7 µM (inactive); in the experiment on A549, > 100 µM (inactive); in the experiment with TK-10, > 100 µM (inactive). Further, the GI50 in the experiment with K562, in the experiment with KM12, in the experiment on SF-268, in the experiment with UO-31, in the experiment on SK-OV-3 and in the experiment on U-251 was > 100 µM (inactive) throughout. Moreover, the GI50 with SNB-75, in the experiment on UACC-257, with SK-MEL-2 and in the experiment on NCI-H460 was > 100 µM (inactive) throughout.
As for `CC(C)CC[C@H](O)[C@@H](C)[C@H]1[C@@H](OC2OC(C)C(O)C(O)C2O)C[C@H]2[C@@H]3CC=C4C[C@@H](O)CC[C@]4(C)[C@H]3[C@@H](O)C[C@]12C` (stereo not given in full), the GI50 is 1.85 µM (inactive) in the experiment with Malme-3M; 3.46 µM (inactive) in the experiment with A498; 0.0337 µM (active) in the experiment on SF-539; 1.55 µM (inactive) with M14; 0.692 µM (active) with TK-10; 0.235 µM (active) in the experiment on K562. In addition, the GI50 in the experiment on KM12 was 3.28 µM (inactive); in the experiment with SF-268, 1.58 µM (inactive); in the experiment on UO-31 it was 1.77 µM (inactive); in the experiment on MCF7 it was 0.656 µM (active); in the experiment with SK-OV-3 it was > 100 µM (inactive); in the experiment on U-251, 0.0562 µM (active). Also, the GI50 with SNB-75 is 5.4 µM (inactive); in the experiment with UACC-257, 1.12 µM (inactive); in the experiment on SK-MEL-2, > 27 µM (inactive); in the experiment with NCI-H460 it was 0.241 µM (active).
